The values below come from the Kinase Knowledgebase extract (Sharma et al. 2016).

The target of the first assay is CDK2 (UniProt P24941). Kind of assay: Enzyme Assay.
As a reminder, the IC50 is the concentration that inhibits the measured activity by half. A high value points to weaker potency. `Cc1cc(CNC(=O)c2n[nH]cc2NC(=O)c2c(F)cccc2F)no1`: the IC50 is under 20 µM.

In turn, `Cc1nn(C)c(C)c1CNC(=O)c1n[nH]cc1NC(=O)c1c(F)cccc1F` had an IC50 of under 20 µM.

Compound `COc1ccccc1CNC(=O)c1n[nH]cc1NC(=O)c1c(F)cccc1F` showed an IC50 of under 20 µM.

The compound `O=C(NCC1CCCO1)c1n[nH]cc1NC(=O)c1c(F)cccc1F` (stereo not drawn) came in with an IC50 of under 20 µM.

The compound `O=C(NCc1ccncc1)c1n[nH]cc1NC(=O)c1c(F)cccc1F` gave an IC50 of under 20 µM.

For another assay, the target named is CDK2 (UniProt P24941). In words: Enzyme Assay. The source holds these as a separate data set.
With `Cc1cc(CNC(=O)c2n[nH]cc2NC(=O)c2c(F)cccc2F)no1`, the IC50 was under 20 µM.

With `Cc1nn(C)c(C)c1CNC(=O)c1n[nH]cc1NC(=O)c1c(F)cccc1F`, the IC50 was under 20 µM.

The compound `COc1ccccc1CNC(=O)c1n[nH]cc1NC(=O)c1c(F)cccc1F` came in with an IC50 of under 20 µM.

`O=C(NCC1CCCO1)c1n[nH]cc1NC(=O)c1c(F)cccc1F` (stereo not drawn) displayed an IC50 of under 20 µM.

The compound `O=C(N[C@H]1CC[C@@H](N2CCOCC2)CC1)c1n[nH]cc1NC(=O)c1c(F)cccc1F` gave an IC50 of under 20 µM.

`O=C(N[C@H]1CC[C@@H](NC2CCOCC2)CC1)c1n[nH]cc1NC(=O)c1c(F)cccc1F`: the IC50 was under 20 µM.

Compound `O=C(NCC1CCNCC1)c1n[nH]cc1NC(=O)c1c(F)cccc1F` gave a 50% inhibitory concentration (IC50) of under 20 µM.

`CO[C@H]1CC[C@H](NC(=O)c2n[nH]cc2NC(=O)c2c(Cl)cccc2Cl)CC1`: the IC50 was under 20 µM.

Compound `O=C(N[C@H]1CCCNC1)c1n[nH]cc1NC(=O)c1c(Cl)cccc1Cl` returned an IC50 of under 20 µM.

In turn, `CC(C)(C)C1CCC(NC(=O)c2n[nH]cc2NC(=O)c2ccc(CN3CCOCC3)o2)CC1` (stereo not drawn) returned an IC50 of under 20 µM.

The compound `COc1cscc1C(=O)Nc1c[nH]nc1C(=O)N[C@H]1CC[C@H](O)CC1` showed an IC50 of under 20 µM.

The compound `COc1cccc(F)c1C(=O)Nc1c[nH]nc1C(=O)NC1CCN(C)CC1` gave a 50% inhibitory concentration (IC50) of under 20 µM.

Take `CC(C)N1CCC(NC(=O)c2n[nH]cc2NC(=O)c2c(F)cccc2F)CC1`: the IC50 is under 20 µM.

The compound `COc1cccc(F)c1C(=O)Nc1c[nH]nc1C(=O)NC1CCN(C(=O)OC(C)(C)C)CC1` came in with an IC50 of under 20 µM.

`O=C(NC1CCN(c2ncccn2)CC1)c1n[nH]cc1NC(=O)c1c(F)cccc1F` gave an IC50 of under 20 µM.

Compound `COc1cccc(F)c1C(=O)Nc1c[nH]nc1C(=O)NC1CCC(C(C)(C)C)CC1` (stereo not drawn) had an IC50 of under 20 µM.

The compound `COc1ccccc1C(=O)Nc1c[nH]nc1C(=O)N[C@H]1CC[C@H](O)CC1` had an IC50 of under 20 µM.

Regarding `O=C(Nc1c[nH]nc1C(=O)NC1CCNCC1)c1ccccc1OC(F)F`, the half-inhibitory concentration (IC50) is under 20 µM.

For the compound `O=C(Nc1c[nH]nc1C(=O)NC1CCNCC1)c1ccc(OC(F)F)cc1`, the IC50 is under 20 µM.

With `CS(=O)(=O)N1CCC(NC(=O)c2n[nH]cc2NC(=O)c2c(F)cccc2F)CC1`, the half-maximal inhibitory concentration (IC50) is under 20 µM.

As to `CN1CCN(c2cc(F)cc(C(=O)Nc3c[nH]nc3C(=O)NC3CCCCC3)c2)CC1`, the half-inhibitory concentration (IC50) was under 20 µM.

In the case of `O=C(Nc1c[nH]nc1C(=O)NC1CCNCC1)c1cc(F)cc(F)c1`, the IC50 is under 20 µM.

The compound `O=C(Nc1c[nH]nc1C(=O)NC1CCNCC1)c1ccccc1` had a 50% inhibitory concentration (IC50) of under 750 µM.

`O=C(NC1CCC(N2CCSCC2)CC1)c1n[nH]cc1NC(=O)c1c(F)cccc1F` (stereo not drawn): the half-maximal inhibitory concentration (IC50) is under 20 µM.

`CN1CCC(NC(=O)c2n[nH]cc2NC(=O)c2cccc3c2OCCO3)CC1` returned an IC50 of under 20 µM.

For `O=C(NCc1ccncc1)c1n[nH]cc1NC(=O)c1c(F)cccc1F`, the IC50 is under 20 µM.

Regarding `O=C(NC1CCN(CC(F)(F)F)CC1)c1n[nH]cc1NC(=O)c1c(F)cccc1F`, the IC50 was under 20 µM.

`O=C(NC1CCN(CC2CCOC2)CC1)c1n[nH]cc1NC(=O)c1c(F)cccc1F` (stereo not drawn) came in with an IC50 of under 20 µM.

On to `CCOc1ccccc1C(=O)Nc1c[nH]nc1C(=O)NC1CCNCC1`, for which the IC50 is under 20 µM.

On to `CC(C)(C)N1CCC(NC(=O)c2n[nH]cc2NC(=O)c2c(F)cccc2F)CC1`, for which the IC50 is under 20 µM.

In turn, `O=C(Nc1c[nH]nc1C(=O)NC1CCNCC1)c1cc(-c2ccccc2)cs1` returned an IC50 of under 20 µM.

`O=C(N[C@H]1CC[C@H](N2CCS(=O)(=O)CC2)CC1)c1n[nH]cc1NC(=O)c1c(F)cccc1F` displayed an IC50 of under 20 µM.

Take `CN1CCC(NC(=O)c2n[nH]cc2NC(=O)c2ccccc2Cl)CC1`: the IC50 was under 20 µM.

The compound `CN1CCC(NC(=O)c2n[nH]cc2NC(=O)c2cccc(Cl)c2Cl)CC1` gave an IC50 of under 20 µM.

`CN1CCC(NC(=O)Nc2c[nH]nc2C(=O)N[C@H]2CC[C@H](O)CC2)CC1` came in with an IC50 of under 20 µM.

On to `C[N+]1([O-])CCC(NC(=O)c2n[nH]cc2NC(=O)c2c(F)cccc2F)CC1` (stereo not drawn), for which the IC50 is under 20 µM.

`CC(C)(C)C1CCC(NC(=O)c2n[nH]cc2NC(=O)c2ccc(CN3CCCC3)o2)CC1` (stereo not drawn) yielded an IC50 of under 20 µM.

Consider `CN1CCC(C(=O)Nc2c[nH]nc2C(=O)NCC2CC2)CC1`, for which the IC50 was under 20 µM.
